Assay results published in ChEMBL document CHEMBL3860060, “Discovery and Optimization of 1-Phenoxy-2-aminoindanes as Potent, Selective, and Orally Bioavailable Inhibitors of the Na+/H+ Exchanger Type 3 (NHE3)” (J Med Chem, 2016).
Calls of active or inactive are those of the source. No cut-off for these calls is given here.

What was measured:
[1] = target: T1, Sodium/hydrogen exchanger 3 (Homo sapiens, UniProt P48764); assay: Inhibition of human NHE3 expressed in LAP1 cell assessed as intracellular pH recovery measured for 2 mins by CECF-AM dye based FLIPR assay
T1 sequence (P48764 whole entry): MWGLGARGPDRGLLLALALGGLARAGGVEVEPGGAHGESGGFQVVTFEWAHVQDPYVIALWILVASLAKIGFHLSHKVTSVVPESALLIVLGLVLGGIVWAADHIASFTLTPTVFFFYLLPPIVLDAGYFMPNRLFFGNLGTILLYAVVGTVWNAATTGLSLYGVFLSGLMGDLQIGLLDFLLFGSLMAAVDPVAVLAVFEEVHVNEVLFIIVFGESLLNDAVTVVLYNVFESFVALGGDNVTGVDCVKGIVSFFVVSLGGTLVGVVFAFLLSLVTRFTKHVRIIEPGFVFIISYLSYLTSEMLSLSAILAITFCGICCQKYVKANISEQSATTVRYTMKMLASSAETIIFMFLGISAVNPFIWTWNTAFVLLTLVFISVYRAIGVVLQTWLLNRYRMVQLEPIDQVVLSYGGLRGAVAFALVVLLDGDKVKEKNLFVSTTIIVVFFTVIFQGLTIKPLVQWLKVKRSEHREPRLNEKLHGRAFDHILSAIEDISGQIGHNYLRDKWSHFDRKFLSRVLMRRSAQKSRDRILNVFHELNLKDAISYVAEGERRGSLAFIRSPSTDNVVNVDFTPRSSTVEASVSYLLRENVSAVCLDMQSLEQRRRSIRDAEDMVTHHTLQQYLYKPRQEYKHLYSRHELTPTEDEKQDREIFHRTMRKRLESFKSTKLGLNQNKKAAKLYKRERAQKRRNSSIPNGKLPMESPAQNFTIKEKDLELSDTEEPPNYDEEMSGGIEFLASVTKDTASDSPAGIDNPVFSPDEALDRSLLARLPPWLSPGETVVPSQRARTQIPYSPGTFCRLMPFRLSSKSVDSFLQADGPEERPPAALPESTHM

[2] = Permeability in human Caco2/TC7 cells assessed as total flux at 20 uM incubated for 2 hrs by LC-MS/MS method; type: ADME, cell-based; conditions: Caco-2, read-out: permeability
CYP2D6 [3] = target: T2, CYP2D6 (Homo sapiens, UniProt P10635); assay: Inhibition of CYP2D6 in pooled human hepatic microsomes at 10 uM using dextromethorphan substrate in presence of NADPH; type: ADME; conditions: pooled human liver microsomes, probe dextromethorphan
Cytochrome P450 2D6 = Cytochrome P450 2D6 (Homo sapiens, UniProt P10635)
Description: Inhibition of CYP2D6 in pooled human hepatic microsomes using dextromethorphan substrate in presence of NADPH

Cytochrome P450 3A4 = Cytochrome P450 3A4 (Homo sapiens, UniProt P08684); assay: Inhibition of CYP3A4 in pooled human hepatic microsomes using testosterone substrate in presence of NADPH; type: ADME, Liver
CYP2D6 [4] = target: T2, CYP2D6; assay: Inhibition of CYP2D6 in pooled human hepatic microsomes assessed as remaining enzyme activity at 0.225 uM using […] substrate in presence of NADPH; type: ADME; conditions: pooled human liver microsomes, probe […], read-out: Activity
Homo sapiens [5] = species on record: Homo sapiens; assay: Inhibition of PDE4 (unknown origin) at 10 uM
Sus scrofa [6] = assay: Inhibition of upper airway collapsibility in urethane-chloralose anesthetized pig at 1 mg/kg, id after 4 hrs; type: functional, organism-based
Homo sapiens [7] = species on record: Homo sapiens; assay: Inhibition of GABA-gated chloride channel (unknown origin) at 10 uM
Sus scrofa [8] = assay: Inhibition of upper airway collapsibility in urethane-chloralose anesthetized pig at 3 mg/kg, id after 4 hrs; type: functional, organism-based

T2 sequence (P10635 whole entry): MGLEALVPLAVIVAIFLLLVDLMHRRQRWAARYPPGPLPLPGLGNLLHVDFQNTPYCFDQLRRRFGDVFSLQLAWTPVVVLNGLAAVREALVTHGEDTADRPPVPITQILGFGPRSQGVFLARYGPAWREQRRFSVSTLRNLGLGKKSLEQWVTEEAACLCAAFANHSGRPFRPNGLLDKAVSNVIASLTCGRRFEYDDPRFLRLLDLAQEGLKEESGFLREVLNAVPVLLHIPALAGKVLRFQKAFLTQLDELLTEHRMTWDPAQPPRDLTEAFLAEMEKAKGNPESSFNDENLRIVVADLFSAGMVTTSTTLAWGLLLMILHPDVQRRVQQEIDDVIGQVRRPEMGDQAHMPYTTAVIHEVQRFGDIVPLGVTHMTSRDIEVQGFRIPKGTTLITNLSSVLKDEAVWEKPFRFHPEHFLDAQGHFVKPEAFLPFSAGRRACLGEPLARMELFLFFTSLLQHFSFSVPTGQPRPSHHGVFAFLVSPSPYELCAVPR
Chain of Cytochrome P450 2D6 (P10635 whole entry): as above
Chain of Cytochrome P450 3A4 (P08684 whole entry): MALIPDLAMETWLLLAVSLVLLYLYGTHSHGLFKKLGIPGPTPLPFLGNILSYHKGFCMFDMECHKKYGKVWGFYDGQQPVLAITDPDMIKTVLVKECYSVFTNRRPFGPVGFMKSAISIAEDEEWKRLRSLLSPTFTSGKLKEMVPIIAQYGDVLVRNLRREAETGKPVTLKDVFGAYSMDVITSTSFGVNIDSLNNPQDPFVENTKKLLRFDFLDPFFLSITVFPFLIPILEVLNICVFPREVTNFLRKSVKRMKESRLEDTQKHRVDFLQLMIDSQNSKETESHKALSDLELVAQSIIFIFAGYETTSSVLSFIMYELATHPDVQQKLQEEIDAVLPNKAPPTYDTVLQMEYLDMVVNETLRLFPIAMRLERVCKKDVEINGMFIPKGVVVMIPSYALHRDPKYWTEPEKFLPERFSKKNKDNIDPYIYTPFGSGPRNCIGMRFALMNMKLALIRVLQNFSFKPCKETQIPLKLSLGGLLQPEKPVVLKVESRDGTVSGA

Cc1nnc(C)n1-c1ccc(O[C@H]2c3cc(Cl)cc(Cl)c3C[C@@H]2N2CC[C@@H](O)C2)c(F)c1 [listing 1 of 2 here]
IC50 [1]: 34 nM | Papp at 2 h, 20 µM [2]: 2.8 ×10⁻⁶ cm/s | inhibition at 10 µM (CYP2D6 [3]): 17% | IC50 (Cytochrome P450 2D6): > 10000 nM | IC50 (Cytochrome P450 3A4): > 50000 nM

C=C[C@H]1C[N@@]2CC[C@H]1C[C@@H]2[C@@H](O)c1ccnc2ccc(OC)cc12 [QUINIDINE]
activity at 0.225 µM (CYP2D6 [4]): 21%

Cc1nnc(C)n1-c1ccc(O[C@H]2c3cc(Cl)cc(Cl)c3C[C@@H]2N2CC[C@@H](O)C2)c(F)c1 [listing 2 of 2 here]
inhibition (Homo sapiens [5]): 54% | inhibition (Sus scrofa [6]): Active | inhibition (Homo sapiens [7]): 55% | inhibition (Sus scrofa [8]): Active

CS(=O)(=O)c1ccc(O[C@H]2c3cc(Cl)cc(Cl)c3C[C@@H]2N2CCNCC2)cc1
IC50 [1]: 22 nM | Papp at 2 h, 20 µM [2]: 3 ×10⁻⁶ cm/s | IC50 (Cytochrome P450 2D6): < 300 nM

NS(=O)(=O)c1ccc(O[C@H]2c3ccccc3C[C@@H]2N2CCCC2)c(Cl)c1Cl
IC50 [1]: 123 nM | Papp at 2 h, 20 µM [2]: 13.2 ×10⁻⁶ cm/s | IC50 (Cytochrome P450 2D6): 400 nM

N[C@@H]1CCCN([C@H]2Cc3c(Cl)cc(Cl)cc3[C@@H]2Oc2ccc(S(N)(=O)=O)c(Cl)c2Cl)C1
IC50 [1]: 0.2 nM | Papp at 2 h, 20 µM [2]: 0.6 ×10⁻⁶ cm/s | IC50 (Cytochrome P450 2D6): 1500 nM

N[C@@H]1CCCN([C@H]2Cc3c(Cl)cc(Cl)cc3[C@@H]2Oc2ccc(-n3cncn3)cc2)C1
IC50 [1]: 30 nM | Papp at 2 h, 20 µM [2]: 2.4 ×10⁻⁶ cm/s | IC50 (Cytochrome P450 2D6): < 300 nM

Cc1nnc(C)n1-c1ccc(O[C@H]2c3cc(Cl)cc(Cl)c3C[C@@H]2N2CCCNCC2)cc1
IC50 [1]: 23 nM | Papp at 2 h, 20 µM [2]: 0.3 ×10⁻⁶ cm/s | inhibition at 10 µM (CYP2D6 [3]): 25% | IC50 (Cytochrome P450 2D6): > 10000 nM

CC(=O)Nc1cccc(O[C@H]2c3ccccc3C[C@@H]2N2CCC[C@@H](N)C2)c1
IC50 [1]: 440 nM | Papp at 2 h, 20 µM [2]: 0.03 ×10⁻⁶ cm/s | IC50 (Cytochrome P450 2D6): 5100 nM

NC(=O)Nc1cccc(O[C@H]2c3ccccc3C[C@@H]2N2CCC[C@@H](N)C2)c1
IC50 [1]: 330 nM | Papp at 2 h, 20 µM [2]: 0.04 ×10⁻⁶ cm/s | IC50 (Cytochrome P450 2D6): 8600 nM

CC(=O)Nc1cccc(O[C@H]2c3ccccc3C[C@@H]2N2CCCC2)c1
IC50 [1]: 438 nM | Papp at 2 h, 20 µM [2]: 9.1 ×10⁻⁶ cm/s | IC50 (Cytochrome P450 2D6): 640 nM

Cc1nnc(C)n1-c1ccc(O[C@H]2c3cc(Cl)cc(Cl)c3C[C@@H]2N2CCCN(C)CC2)cc1
IC50 [1]: 17 nM | Papp at 2 h, 20 µM [2]: 0.2 ×10⁻⁶ cm/s | inhibition at 10 µM (CYP2D6 [3]): 22% | IC50 (Cytochrome P450 2D6): > 10000 nM
